Data reported in PMC12416685, “3-O-acetylrubiarbonol B preferentially targets EGFR and MET over rubiarbonol B to inhibit NSCLC cell growth” (PLOS One, 2025).
pIC50: −log10 of the molar value.

Key:
Assay type in all cases: biochemical
AKT1 = AKT1 (Homo sapiens, UniProt P31749); experiment: ADP-Glo in vitro kinase assay; relative activity left at […]
EGFR = EGFR (Homo sapiens, UniProt P00533); experiment: ADP-Glo in vitro kinase assay
MET = MET (Homo sapiens, UniProt P08581); experiment: ADP-Glo in vitro kinase assay
Chain of MET (P08581 25-307): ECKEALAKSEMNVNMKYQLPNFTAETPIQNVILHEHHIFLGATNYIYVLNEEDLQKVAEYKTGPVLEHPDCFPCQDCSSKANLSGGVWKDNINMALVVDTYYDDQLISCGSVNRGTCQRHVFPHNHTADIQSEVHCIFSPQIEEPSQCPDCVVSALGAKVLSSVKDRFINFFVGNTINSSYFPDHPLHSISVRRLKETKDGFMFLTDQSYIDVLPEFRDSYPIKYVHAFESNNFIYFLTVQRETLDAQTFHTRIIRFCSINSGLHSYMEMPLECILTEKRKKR
Chain of MET (P08581 308-1390): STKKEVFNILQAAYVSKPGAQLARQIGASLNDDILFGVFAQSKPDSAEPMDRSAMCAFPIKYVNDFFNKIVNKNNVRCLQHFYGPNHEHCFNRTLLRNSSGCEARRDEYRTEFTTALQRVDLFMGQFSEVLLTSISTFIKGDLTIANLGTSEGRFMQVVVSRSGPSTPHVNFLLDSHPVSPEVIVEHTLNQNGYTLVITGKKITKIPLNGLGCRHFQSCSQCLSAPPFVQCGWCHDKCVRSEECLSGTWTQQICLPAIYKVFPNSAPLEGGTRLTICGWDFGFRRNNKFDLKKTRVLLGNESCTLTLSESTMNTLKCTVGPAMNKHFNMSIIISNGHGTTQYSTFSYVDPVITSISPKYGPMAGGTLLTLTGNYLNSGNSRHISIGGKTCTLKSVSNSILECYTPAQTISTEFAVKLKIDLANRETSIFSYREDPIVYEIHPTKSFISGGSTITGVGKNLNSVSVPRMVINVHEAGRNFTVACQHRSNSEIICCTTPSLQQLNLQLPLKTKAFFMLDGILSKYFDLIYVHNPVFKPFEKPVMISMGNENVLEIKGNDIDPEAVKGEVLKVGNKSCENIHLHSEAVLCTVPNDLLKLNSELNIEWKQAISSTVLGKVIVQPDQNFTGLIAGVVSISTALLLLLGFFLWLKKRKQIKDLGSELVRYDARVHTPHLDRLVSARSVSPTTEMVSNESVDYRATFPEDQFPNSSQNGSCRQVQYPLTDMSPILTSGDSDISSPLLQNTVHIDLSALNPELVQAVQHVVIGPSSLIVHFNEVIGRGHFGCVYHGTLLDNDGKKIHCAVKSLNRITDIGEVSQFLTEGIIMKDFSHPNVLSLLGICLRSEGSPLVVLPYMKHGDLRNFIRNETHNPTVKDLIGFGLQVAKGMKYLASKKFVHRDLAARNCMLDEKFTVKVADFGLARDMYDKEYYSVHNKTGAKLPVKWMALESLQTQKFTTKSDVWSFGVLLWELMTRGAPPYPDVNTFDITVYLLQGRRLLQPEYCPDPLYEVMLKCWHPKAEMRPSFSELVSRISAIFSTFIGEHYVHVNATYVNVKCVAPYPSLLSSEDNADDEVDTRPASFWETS

Chain of AKT1 (P31749 whole entry): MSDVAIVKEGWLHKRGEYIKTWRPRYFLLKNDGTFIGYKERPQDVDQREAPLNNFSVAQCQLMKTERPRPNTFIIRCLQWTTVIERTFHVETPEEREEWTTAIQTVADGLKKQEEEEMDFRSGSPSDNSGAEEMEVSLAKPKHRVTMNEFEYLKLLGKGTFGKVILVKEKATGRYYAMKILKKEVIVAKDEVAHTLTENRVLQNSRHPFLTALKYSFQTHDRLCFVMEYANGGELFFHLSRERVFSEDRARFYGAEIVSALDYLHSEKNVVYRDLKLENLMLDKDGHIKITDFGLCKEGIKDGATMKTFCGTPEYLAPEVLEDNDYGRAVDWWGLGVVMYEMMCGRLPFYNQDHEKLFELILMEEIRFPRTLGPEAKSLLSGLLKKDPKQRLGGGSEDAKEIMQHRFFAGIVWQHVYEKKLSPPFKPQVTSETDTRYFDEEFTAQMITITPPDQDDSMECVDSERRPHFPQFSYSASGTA
Chain of EGFR (P00533 25-1210): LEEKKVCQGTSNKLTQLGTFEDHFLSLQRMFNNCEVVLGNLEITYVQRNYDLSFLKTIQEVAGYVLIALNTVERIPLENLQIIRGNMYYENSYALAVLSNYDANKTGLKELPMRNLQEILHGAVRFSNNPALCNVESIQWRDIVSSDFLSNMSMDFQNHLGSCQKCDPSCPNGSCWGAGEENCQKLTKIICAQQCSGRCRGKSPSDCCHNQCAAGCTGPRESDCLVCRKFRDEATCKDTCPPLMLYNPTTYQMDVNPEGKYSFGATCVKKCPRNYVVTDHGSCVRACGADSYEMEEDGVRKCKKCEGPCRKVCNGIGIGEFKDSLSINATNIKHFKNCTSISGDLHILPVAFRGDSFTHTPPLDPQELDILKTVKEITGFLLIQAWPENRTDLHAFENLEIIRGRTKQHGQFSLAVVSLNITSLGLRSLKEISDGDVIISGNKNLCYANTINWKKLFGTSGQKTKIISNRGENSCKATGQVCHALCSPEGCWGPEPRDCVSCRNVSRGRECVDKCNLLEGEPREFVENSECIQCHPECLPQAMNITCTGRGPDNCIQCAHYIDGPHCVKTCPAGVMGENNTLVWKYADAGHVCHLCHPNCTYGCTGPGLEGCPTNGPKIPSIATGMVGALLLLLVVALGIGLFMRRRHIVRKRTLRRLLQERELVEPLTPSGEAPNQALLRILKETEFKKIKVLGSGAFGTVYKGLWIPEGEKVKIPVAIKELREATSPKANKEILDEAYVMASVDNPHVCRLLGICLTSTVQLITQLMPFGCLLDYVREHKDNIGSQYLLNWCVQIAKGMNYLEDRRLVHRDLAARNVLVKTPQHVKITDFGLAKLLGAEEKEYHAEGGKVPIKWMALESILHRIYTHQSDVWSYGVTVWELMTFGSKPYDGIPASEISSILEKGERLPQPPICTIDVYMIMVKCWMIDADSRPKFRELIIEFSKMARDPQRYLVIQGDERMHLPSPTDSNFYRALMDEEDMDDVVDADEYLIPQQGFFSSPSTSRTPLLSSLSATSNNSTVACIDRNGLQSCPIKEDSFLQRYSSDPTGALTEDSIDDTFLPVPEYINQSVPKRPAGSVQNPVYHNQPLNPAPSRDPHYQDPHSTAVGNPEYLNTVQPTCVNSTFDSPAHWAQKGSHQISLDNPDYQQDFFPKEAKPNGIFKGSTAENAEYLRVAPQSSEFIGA

Work on `CC(=O)O[C@H]1CC[C@]2(C)C3=CC[C@]4(C)[C@H]5[C@H](O)C[C@@H](C(C)C)[C@]5(C)CC[C@@]4(C)[C@@H]3[C@@H](O)C[C@H]2C1(C)C` [ARu-B, 3-O-acetylrubiarbonol B] yielded an activity at 8 µM (AKT1) of 58%, a pIC50 (EGFR) of 5.52 and a pIC50 (MET) of 5.77.
In the case of `CC(C)[C@@H]1C[C@@H](O)[C@H]2[C@@]1(C)CC[C@@]1(C)[C@H]3C(=CC[C@]21C)[C@@]1(C)CC[C@H](O)C(C)(C)[C@@H]1C[C@@H]3O` [Ru-B, rubiarbonol B], the activity at 8 µM (AKT1) was 67.1%, the pIC50 (EGFR) was 5.12 and the pIC50 (MET) was 5.38.
